From ChEMBL document CHEMBL3804805, “Cathepsin B Inhibitors: Combining Dipeptide Nitriles with an Occluding Loop Recognition Element by Click Chemistry” (ACS Med Chem Lett, 2016)

How the values were obtained:
[1] = target: T1, Cathepsin B (Homo sapiens, UniProt P07858); assay: Inhibition of human liver cathepsin B using Cbz-Arg-Arg-pNA as substrate at pH 6 incubated for 30 mins measured for 20 mins by photometrical analysis
[2] = target: Procathepsin L (Homo sapiens, UniProt P07711); assay: Inhibition of human liver cathepsin L using Cbz-Phe-Arg-pNA as substrate incubated for 30 mins measured for 20 mins by photometrical analysis
Chain of Procathepsin L (P07711 whole entry): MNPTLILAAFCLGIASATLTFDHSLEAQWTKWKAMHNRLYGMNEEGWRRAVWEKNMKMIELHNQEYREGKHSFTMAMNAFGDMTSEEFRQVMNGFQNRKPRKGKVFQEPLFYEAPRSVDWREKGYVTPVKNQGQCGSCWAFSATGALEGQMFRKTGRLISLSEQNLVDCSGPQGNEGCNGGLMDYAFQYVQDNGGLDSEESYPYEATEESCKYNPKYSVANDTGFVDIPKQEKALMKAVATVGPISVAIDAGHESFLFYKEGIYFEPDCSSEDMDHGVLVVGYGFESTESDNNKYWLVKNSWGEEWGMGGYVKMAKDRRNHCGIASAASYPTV

[3] = target: T2, Cathepsin K (Homo sapiens, UniProt P43235); assay: Inhibition of human recombinant cathepsin K using Cbz-Leu-Arg-AMC as substrate incubated for 30 mins measured for 20 mins by spectrofluorometrical analysis
T2 sequence (P43235 whole entry): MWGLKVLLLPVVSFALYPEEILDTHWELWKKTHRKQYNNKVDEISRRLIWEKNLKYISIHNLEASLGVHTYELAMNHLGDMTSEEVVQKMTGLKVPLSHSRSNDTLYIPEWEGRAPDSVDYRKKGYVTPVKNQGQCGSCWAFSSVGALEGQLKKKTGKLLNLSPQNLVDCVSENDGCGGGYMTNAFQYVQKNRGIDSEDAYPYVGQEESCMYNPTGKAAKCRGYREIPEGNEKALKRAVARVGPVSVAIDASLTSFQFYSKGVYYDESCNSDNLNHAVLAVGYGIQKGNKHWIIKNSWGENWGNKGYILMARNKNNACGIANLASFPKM

[4] = target: Cathepsin S (Homo sapiens, UniProt P25774); assay: Inhibition of human recombinant cathepsin S using Cbz-Phe-Arg-AMC as substrate incubated for 60 mins measured for 20 mins by spectrofluorometrical analysis
Chain of Cathepsin S (P25774 whole entry): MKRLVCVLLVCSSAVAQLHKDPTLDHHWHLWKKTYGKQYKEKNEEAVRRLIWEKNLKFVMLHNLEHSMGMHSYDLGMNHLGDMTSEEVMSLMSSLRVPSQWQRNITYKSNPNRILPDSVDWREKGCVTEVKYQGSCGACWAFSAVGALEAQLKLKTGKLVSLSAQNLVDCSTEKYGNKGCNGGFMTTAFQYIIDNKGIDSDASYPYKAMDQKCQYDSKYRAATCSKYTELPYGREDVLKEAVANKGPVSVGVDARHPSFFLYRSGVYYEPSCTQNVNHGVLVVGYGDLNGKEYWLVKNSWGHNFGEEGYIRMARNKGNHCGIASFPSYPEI

[5] = target: T1, Cathepsin B; assay: Inhibition of human liver cathepsin B using Cbz-Arg-Arg-pNA as substrate at pH 4.5 incubated for 30 mins measured for 20 mins by photometrical analysis
[6] = target: T1, Cathepsin B; assay: Inhibition of human liver cathepsin B using Abz-Gly-Ile-Val-Arg-Ala-Lys(Dnp)-OH as substrate at pH 4.5 incubated for 30 mins measured for 10 mins by […]
[7] = target: T1, Cathepsin B; assay: Inhibition of human cathepsin B

Row | Structure (SMILES) | Ki [1] | further results
1 | CC(=O)N[C@@H](Cc1ccccc1)C(=O)NCC#N | > 330 nM | 
2 | CC(C)(C)OC(=O)N[C@@H](CCc1ccccc1)C(=O)NCC#N | > 330 nM | 
3 | CC(C)(C)OC(=O)NCC(=O)NCC#N | > 330 nM | 
4 | N#CCNC(=O)CNC(=O)OCc1ccccc1 | > 330 nM | 
5 | CC(C)(C)OC(=O)N1CCC[C@H]1C(=O)NCC#N | > 330 nM | 
6 | N#CCNC(=O)C1(NC(=O)OCc2ccccc2)CCCCC1 | > 330 nM | 
7 | CC(C)C[C@H](NC(=O)OC(C)(C)C)C(=O)NCC#N | 94000 nM | 
8 | CC(C)C[C@H](NC(=O)OCc1ccccc1)C(=O)NCC#N | 32000 nM | 
9 | CC(C)(C)OC(=O)N[C@@H](Cc1ccccc1)C(=O)NCC#N | 37000 nM | 
10 | CC(C)(C)OC(=O)N[C@@H](Cc1ccc2ccccc2c1)C(=O)NCC#N | 3460 nM | 
11 | CC(C)(C)OC(=O)N[C@@H](Cc1ccc(-c2ccccc2)cc1)C(=O)NCC#N | > 330 nM | 
12 | CC(C)(C)OC(=O)N[C@H](C(=O)NCC#N)c1ccccc1 | > 330 nM | 
13 | CC(C)(C)OC(=O)N[C@@H](Cc1cccs1)C(=O)NCC#N | > 330 nM | 
14 | CC(C)(C)OC(=O)N[C@@H](Cc1ccc(F)cc1)C(=O)NCC#N | > 330 nM | 
15 | CC(C)(C)OC(=O)N[C@@H](CC1CCCCC1)C(=O)NCC#N | > 330 nM | 
16 | CC(C)(C)OC(=O)N[C@@H](CC1CC1)C(=O)NCC#N | > 330 nM | 
17 | N#CCNC(=O)[C@H](Cc1ccccc1)NC(=O)c1ccccc1 | > 330 nM | 
18 | CC(C)(C)OC(=O)N[C@@H](Cc1cccc(Br)c1)C(=O)NCC#N | 5170 nM | 
19 | CC(C)(C)OC(=O)N[C@@H](Cc1ccc(O)cc1)C(=O)NCC#N | > 330 nM | 
20 | CSCC[C@@H](C#N)NC(=O)C(CC(C)C)NC(=O)c1ccc(-c2ccccc2)cc1 (some centres not stated) | > 330 nM | 
21 | N#C[C@H](COCc1cn(CCC(=O)O)nn1)NC(=O)[C@H](Cc1ccccc1)NC(=O)OCc1ccccc1 | 33000 nM | Ki [2]: 1270 nM; Ki [3]: 370 nM; Ki [4]: 2250 nM
22 | N#CCNC(=O)[C@H](Cc1cccc(-c2ccccc2)c1)NC(=O)c1ccc(-c2ccccc2)cc1 | 1230 nM | Ki [2]: 707 nM; Ki [3]: 24.5 nM; Ki [4]: 2660 nM
23 | CC(C)(C)OC(=O)N[C@@H](Cc1ccccc1)C(=O)N[C@H](C#N)CC#N | > 330 nM | 
24 | N#C[C@H](CCOCc1cn(CC(=O)O)nn1)NC(=O)[C@H](Cc1ccccc1)NC(=O)OCc1ccccc1 | 101000 nM | Ki [2]: 2160 nM; Ki [3]: 580 nM; Ki [4]: 1000 nM

Row | Structure (SMILES) | Ki [1] | further results
25 | N#C[C@H](COCc1cn(CC(=O)O)nn1)NC(=O)[C@H](Cc1cccc(Br)c1)NC(=O)c1ccc(-c2ccccc2)cc1 | 41.3 nM | Ki [2]: 6300 nM; Ki [5]: 27.3 nM; Ki [3]: 335 nM; Ki [6]: 19.2 nM; Ki [4]: 352 nM
26 | N#CCNC(=O)[C@@H](N)Cc1ccccc1 | > 330 nM | 
27 | CSCC[C@@H](C#N)NC(=O)[C@H](CC(C)C)NC(=O)c1ccc(-c2ccccc2)cc1 | 330 nM | 
28 | CC(C)C[C@@H](C#N)NC(=O)[C@H](C)NC(=O)CNC(=O)OCc1ccccc1 | > 330 nM | 
29 | N#C[C@H](Cc1cn(CCC(=O)O)nn1)NC(=O)[C@H](Cc1cccc(Br)c1)NC(=O)c1ccc(-c2ccccc2)cc1 |  | Ki [2]: 6980 nM; Ki [3]: 226 nM; Ki [4]: 1800 nM
30 | COc1ccc(C[C@H](NC(=O)OCc2ccccc2)C(=O)NCC#N)cc1 | > 330 nM | 
31 | CSCC[C@@H](C#N)NC(=O)[C@H](CC1CCCCC1)NC(=O)OC(C)(C)C | > 330 nM | 
32 | N#C[C@H](Cc1cn(CC(=O)O)nn1)NC(=O)[C@H](Cc1cccc(Br)c1)NC(=O)c1ccc(-c2ccccc2)cc1 | 11200 nM | Ki [2]: 11700 nM; Ki [5]: 707 nM; Ki [3]: 535 nM; Ki [6]: 368 nM; Ki [4]: 4230 nM
33 | N#CCNC(=O)[C@H](Cc1ccc(O)cc1)NC(=O)OCc1ccccc1 | > 330 nM | 
34 | N#CCNC(=O)[C@H](Cc1cccc(Br)c1)NC(=O)c1ccc(-c2ccccc2)cc1 | 120 nM | Ki [2]: 609 nM; Ki [5]: 205 nM; Ki [3]: 930 nM; Ki [6]: 220 nM; Ki [4]: 178 nM
35 | N#CCNC(=O)C1(NC(=O)c2ccc(-c3noc(-c4cccs4)n3)cc2)CCCCC1 | > 330 nM | 
36 | CC(C)C[C@H](NC(=O)c1ccc(-c2ccccc2)cc1)C(=O)NCC#N |  | Ki [7]: 1790 nM
37 | COC(=O)Cn1cc(COC[C@@H](C#N)NC(=O)[C@H](Cc2cccc(Br)c2)NC(=O)c2ccc(-c3ccccc3)cc2)nn1 | 26 nM | Ki [2]: 431 nM; Ki [5]: 136 nM; Ki [3]: 67.6 nM; Ki [6]: 131 nM; Ki [4]: 186 nM
38 | CSCC[C@@H](C#N)NC(=O)[C@H](CC(C)C)NC(=O)OC(C)(C)C | > 330 nM | 
39 | N#CCNC(=O)[C@H](CC1CCCCC1)NC(=O)c1ccc(-c2noc(-c3cccs3)n2)cc1 | > 330 nM | 
40 | CCC(C)[C@H](NC(=O)OC(C)(C)C)C(=O)NCC#N (some centres not stated) | > 330 nM | 
41 | CN(CC#N)C(=O)[C@H](Cc1ccccc1)NC(=O)OCc1ccccc1 | > 330 nM | 
42 | CC(C)(C)OC(=O)N[C@@H](Cc1c[nH]c2ccccc12)C(=O)NCC#N | > 330 nM | 
43 | CSCC[C@H](NC(=O)OC(C)(C)C)C(=O)NCC#N | > 330 nM | 
44 | CCCC[C@H](NC(=O)OC(C)(C)C)C(=O)NCC#N | > 330 nM | 
45 | CCC[C@H](NC(=O)OC(C)(C)C)C(=O)NCC#N | > 330 nM | 
46 | CC(C)(C)OC(=O)N[C@@H](Cc1ccco1)C(=O)NCC#N | > 330 nM | 
47 | C[C@@H](C#N)NC(=O)[C@H](Cc1ccccc1)NC(=O)OCc1ccccc1 | > 330 nM | 

The next lines start with results.

Row | Ki [1] | Structure (SMILES) | further results
48 | > 330 nM | CC(C)C[C@H](NC(=O)Nc1ccc(-c2noc(-c3cccs3)n2)cc1)C(=O)NCC#N | 
49 | > 330 nM | CC(C)C[C@H](NC(=O)c1ccc(-c2noc(-c3cccs3)n2)cc1)C(=O)NCC#N | 
50 | > 330 nM | CC(C)(C)OC(=O)N[C@@H](COCc1ccccc1)C(=O)NCC#N | 
51 | > 330 nM | CC(C)[C@H](NC(=O)OC(C)(C)C)C(=O)NCC#N | 
52 | 3920 nM | N#CCNC(=O)[C@H](Cc1ccccc1)NC(=O)c1ccc(-c2ccccc2)cc1 | 
53 | > 330 nM | CC(C)(C)OC(=O)N[C@@H](Cc1cccc2ccccc12)C(=O)NCC#N | 
54 | > 330 nM | CC(C)(C)OC(=O)N[C@@H](Cc1ccccc1Br)C(=O)NCC#N | 
55 | > 330 nM | CC[C@H](NC(=O)OC(C)(C)C)C(=O)NCC#N | 
56 | > 330 nM | C[C@H](NC(=O)OC(C)(C)C)C(=O)NCC#N | 
57 | > 330 nM | CC(C)(C)OC(=O)N[C@@H](Cc1ccc(Br)cc1)C(=O)NCC#N | 
58 | > 330 nM | CN(CC#N)C(=O)[C@H](Cc1ccccc1)NC(=O)OC(C)(C)C | 
59 | > 330 nM | CC(C)(C)OC(=O)N[C@H](Cc1ccccc1)C(=O)NCC#N | 
60 | > 330 nM | N#CCNC(=O)[C@H](Cc1ccccc1)NC(=O)OCc1ccccc1 | 
61 | 196000 nM | N#C[C@H](CCOCc1cn(CCC(=O)O)nn1)NC(=O)[C@H](Cc1ccccc1)NC(=O)OCc1ccccc1 | Ki [2]: 1920 nM; Ki [3]: 370 nM; Ki [4]: 490 nM
62 | > 330 nM | CSCC[C@@H](C#N)NC(=O)[C@H](Cc1ccccc1)NC(=O)OC(C)(C)C | 
63 | 5350 nM | CC(C)(C)OC(=O)N[C@@H](Cc1cccc(-c2ccccc2)c1)C(=O)NCC#N | 
64 | 126 nM | N#CCNC(=O)[C@H](Cc1ccc2ccccc2c1)NC(=O)c1ccc(-c2ccccc2)cc1 | Ki [2]: 4300 nM; Ki [3]: 4500 nM; Ki [4]: 180 nM
65 | > 330 nM | N#CCNC(=O)[C@H](CC1CCCCC1)NC(=O)c1ccc(-c2ccccc2)cc1 | 
66 | > 330 nM | C[C@@H](C#N)N(C)C(=O)[C@H](Cc1ccccc1)NC(=O)OC(C)(C)C | 
67 | 24000 nM | N#C[C@H](COCc1cn(CC(=O)O)nn1)NC(=O)[C@H](Cc1ccccc1)NC(=O)OCc1ccccc1 | Ki [2]: 1050 nM; Ki [3]: 310 nM; Ki [4]: 4480 nM
